PMC3742671, “Structure, Antimicrobial Activities and Mode of Interaction with Membranes of Bovel Phylloseptins from the Painted-Belly Leaf Frog, Phyllomedusa sauvagii” (PLoS ONE, 2013)
Read-outs that look alike come from different tables or passages of the source. Ends that are not written are not given here.

Key:
[1] = tested on: C. parapsilosis ATCC 22019; assay type: cell-based
Description: (§1) The effect of phylloseptins-S was evaluated against several bacterial strains and yeasts (Table 2). Bacteria were cultured in Luria-Bertani broth (LB), whereas yeasts were cultured in Yeast Peptone Dextrose medium (YPD), and minimal inhibitory concentrations (MICs) were determined by measuring the absorbance at 630 nm in 96-well microtitration plates, as described previously. Leishmanicidal activity of phylloseptins-S was also examined against promastigotes of different Leishmania species: Leishmania infantum (strain MHOM/MA/67/ITMAP-263), L. major (MHOM/SU/73/5-ASKH) and L. braziliensis (MHOM/BR/75/M2904). Culture of promastigotes and determination of the growth inhibition were performed as previously described, [22], [23].

S. cerevisiae = assay type: cell-based
Description: as §1

[2] = tested on: L. braziliensis (MHOM/BR/75/M2904) promastigotes; assay type: cell-based
Description: as §1

Escherichia coli = details: cited from earlier work
Text: The 16–19 amino acid residue phylloseptins (PLSs) are a new emerging family of cationic antimicrobial peptides that belong to the dermaseptin superfamily, and whose members have been isolated from various genera of the Phyllomedusinae subfamily (Agalychnis, Phasmahyla, and Phyllomedusa), [10]–[16]. Like the archetypal dermaseptins (sensu stricto), these peptides seem to occur in multiple paralogous forms in each species with small differences in amino acid composition. Although only a few of these peptides were properly tested against various microorganisms, significant differences i ...

S. aureus ST1065 = assay: Permeabilization of the cytoplasmic membrane (ONPG hydrolysis); assay type: cell-based; details: ONP production at 405 nm from ONPG; compared with 10 µM dermaseptin B2 as positive control
Description: (§2) PLS-induced permeabilization of the cytoplasmic plasma membranes of E. coli ML-35p and S. aureus ST1065 was measured by the rate of production of o-nitrophenol (ONP) at 405 nm, following hydrolysis of o-nitrophenyl β-D-galactopyranoside (ONPG) by β-galactosidase. Dermaseptin B2 (10 µM) and PBS were used as positive and negative controls, respectively.
(§3) PLS-induced permeabilization of the cytoplasmic membranes of S. aureus ST1065 and E. coli ML-35p was analyzed by incubating the bacteria, which express β-galactosidase constitutively, with different concentrations of the peptides (S. aureus ST1065: PLS-S1, -S2, and -S4; E. coli ML-35p: PLS-S2 and -S4) and measuring the time-dependent hydrolysis of the small chromogenic substrate o-nitrophenyl-β-D-galactopyranoside (ONPG) into o-nitrophenol (ONP) by cytoplasmic β-galactosidase (Fig. 5). The three peptides permeabilized the bacterial cytoplasmic membrane with increasing severity according to the time and the peptide concentration. […] To investigate the mechanism of permeabilization, E. coli ML-35p were incubated with PLS-S2 (30 and 100 µM) and PLS-S4 (25 and 100 µM) for 60 min and β-galactosidase activity was measured after removing bacteria by centrifugation and adding ONPG to the supernatant.
(§4) Figure 5 Kinetics of the cytoplasmic membrane leakage of E. coli ML-35p and S. aureus ST1065 after incubation with different concentrations of active phylloseptins-S. The membrane leakage was determined by measuring the production of o-nitrophenol at 405 nm following hydrolysis of ONPG by the cytoplasmic bacterial β-galactosidase. Data are expressed as the mean ± S.E.M of two experiments carried out in triplicates after subtraction of the negative control values (w/o peptide) from the test values. Control panels display the kinetics obtained without peptide (negative control) and with 10 µM dermaseptin B2 (Drs B2, positive control). For E. coli ML-35p, the extracellular release of β-galactosidase was also measured as the production of o-nitrophenol at 405 nm after incubation (60 min) of E. coli cells with PLS-S2 (30 and 100 µM) and PLS-S4 (25 and 100 µM), removing of bacteria by centrifugation and adding ONPG to the supernatant. The negative (w/o peptide) and positive (10 µM Drs B2) controls are indicated for comparison. Results are expressed as the mean ± S.E.M of one representative experiment performed in triplicates.

E. coli ML-35p [3] = assay: Extracellular release of β-galactosidase; assay type: cell-based; details: 60 min incubation; PLS-S2 30 and 100 µM, PLS-S4 25 and 100 µM, dermaseptin B2 10 µM; ONPG added to supernatant
Description: as §3
Figure 5 Kinetics of the cytoplasmic membrane leakage of E. coli ML-35p and S. aureus ST1065 after incubation with different concentrations of active phylloseptins-S. The membrane leakage was determined by measuring the production of o-nitrophenol at 405 nm following hydrolysis of ONPG by the cytoplasmic bacterial β-galactosidase. […] Results are expressed as the mean ± S.E.M of one representative experiment performed in triplicates.

E. coli ML-35p [4] = assay: Time-kill assay; assay type: cell-based; details: MIC (25 µM) and two-fold above the MIC, in PBS; two experiments in triplicates
Description: The time-kill kinetics of phylloseptins-S against the Gram-negative bacteria E. coli ML-35p and the Gram-positive strain S. aureus ST1065 were evaluated as previously described with a dose of peptide corresponding to the MIC and two-fold above the MIC. Two experiments were realized in triplicates.
Figure 4 Time-kill curves of PLS-S1 (S1), -S2 (S2), and -S4 (S4). […] Controls correspond to bacteria incubated in PBS without peptide. The data are the means ± S.E.M. of two experiments carried out in triplicates.

E. coli ML-35p [5] = assay: Permeabilization of the cytoplasmic membrane (ONPG hydrolysis); assay type: cell-based; details: ONP production at 405 nm from ONPG; compared with 10 µM dermaseptin B2 as positive control
Description: as §2, §3, §4

Substance: FLSLIPHIVSGVASIAKHF-NH2 [PLS-S1]
- MIC [1]: 100 µM
- MIC (S. cerevisiae): 12.5 µM
- IC50 [2]: 15.3 µM
- MIC (Escherichia coli): 80 µM
- permeabilization of the cytoplasmic membrane (in words) (S. aureus ST1065): as efficient as with dermaseptin-B2

Substance: FLSLIPHIVSGVASLAKHF-NH2 [PLS-S2]
- MIC [1]: 50 µM
- MIC (S. cerevisiae; YPD medium, absorbance at 630 nm, average of three independent experiments in triplicates): 6.25 µM
- IC50 [2]: 15 µM
- extracellular release of β-galactosidase (in words) (E. coli ML-35p [3]): dose-dependent release of β-galactosidase
- killing kinetics (in words) (E. coli ML-35p [4]): Almost similar rapid killing kinetics
- permeabilization of the cytoplasmic membrane (in words) (S. aureus ST1065): as efficient as with dermaseptin-B2
- permeabilization of the cytoplasmic membrane (in words) (E. coli ML-35p [5]): lower efficiency

Substance: FLSMIPHIVSGVAALAKHL-NH2 [PLS-S4]
- MIC [1]: 50 µM
- MIC (S. cerevisiae): 12.5 µM
- IC50 [2]: 17.2 µM
- extracellular release of β-galactosidase (in words) (E. coli ML-35p [3]): dose-dependent release of β-galactosidase
- killing kinetics (in words) (E. coli ML-35p [4]): Almost similar rapid killing kinetics
- permeabilization of the cytoplasmic membrane (in words) (S. aureus ST1065): as efficient as with dermaseptin-B2
- permeabilization of the cytoplasmic membrane (in words) (E. coli ML-35p [5]): as efficient as with dermaseptin-B2
